Measurements reported in ChEMBL document CHEMBL2062522, “Halogenated spirotetronates from Actinoallomurus” (J Nat Prod, 2012).
Converted amounts (≈) assume the structure as drawn. The source made the active and inactive calls. The rule behind the calls is not given here.

Tests used:
[1] = Cytotoxicity against mouse BMDM cells after 72 hrs by MTT assay; type: cell-based
Staphylococcus aureus [2] = assay: Antibacterial activity against methicillin-sensitive Staphylococcus aureus ATCC 6538P by broth microdilution method; type: functional
Staphylococcus aureus [3] = assay: Antibacterial activity against methicillin-sensitive Staphylococcus aureus ATCC 25923 by broth microdilution method; type: functional
Staphylococcus aureus [4] = assay: Antibacterial activity against methicillin-sensitive Staphylococcus aureus ATCC 29213 by broth microdilution method; type: functional
Staphylococcus aureus [5] = assay: Antibacterial activity against methicillin-resistant Staphylococcus aureus isolate L1400 by broth microdilution method; type: functional
Staphylococcus aureus [6] = assay: Antibacterial activity against glycopeptide-intermediate Staphylococcus aureus isolate L3798 by broth microdilution method; type: functional
Staphylococcus aureus [7] = assay: Antibacterial activity against glycopeptide-intermediate,methicillin-resistant Staphylococcus aureus isolate L3797 by broth microdilution method; type: functional
[8] = test system: Staphylococcus haemolyticus; assay: Antibacterial activity against methicillin-resistant Staphylococcus haemolyticus isolate L1729 by broth microdilution method; type: functional
[9] = test system: Staphylococcus haemolyticus; assay: Antibacterial activity against methicillin-sensitive Staphylococcus haemolyticus isolate L1730 by broth microdilution method; type: functional
Streptococcus pneumoniae [10] = assay: Antibacterial activity against Streptococcus pneumoniae BAA1402 expressing MefE efflux pump by broth microdilution method; type: functional
Streptococcus pyogenes = assay: Antibacterial activity against Streptococcus pyogenes isolate L49 by broth microdilution method; type: functional
Enterococcus faecalis [11] = assay: Antibacterial activity against vancomycin-sensitive Enterococcus faecalis isolate L559 by broth microdilution method; type: functional
Enterococcus faecalis [12] = assay: Antibacterial activity against vancomycin-resistant Enterococcus faecalis isolate L560 by broth microdilution method; type: functional
Enterococcus faecium [13] = assay: Antibacterial activity against vancomycin-sensitive Enterococcus faecium isolate L568 by broth microdilution method; type: functional
Enterococcus faecium [14] = assay: Antibacterial activity against vancomycin-resistant Enterococcus faecium isolate L569 by broth microdilution method; type: functional
cells = conditions: Homo sapiens, HMEC-1, 72 h
Description: Cytotoxicity against human HMEC1 cells after 72 hrs by MTT assay

Streptococcus pneumoniae [15] = assay: Antibacterial activity against penicillin-sensitive Streptococcus pneumoniae isolate L44 by broth microdilution method
Candida albicans = assay: Antifungal activity against Candida albicans; type: functional, organism-based

| SMILES | IC50 [1] [µM] | MIC (Staphylococcus aureus [2]) [µg/mL] | MIC (Staphylococcus aureus [3]) [µg/mL] | MIC (Staphylococcus aureus [4]) [µg/mL] | MIC (Staphylococcus aureus [5]) [µg/mL] | MIC (Staphylococcus aureus [6]) [µg/mL] | MIC (Staphylococcus aureus [7]) [µg/mL] | MIC [8] [µg/mL] | MIC [9] [µg/mL] | MIC (Streptococcus pneumoniae [10]) [µg/mL] | MIC (Streptococcus pyogenes) [µg/mL] | MIC (Enterococcus faecalis [11]) [µg/mL] | MIC (Enterococcus faecalis [12]) [µg/mL] | MIC (Enterococcus faecium [13]) [µg/mL] | MIC (Enterococcus faecium [14]) [µg/mL] | IC50 (cells) [µM] | MIC (Streptococcus pneumoniae [15]) [µg/mL] | Activity (Candida albicans) |
| --- | --- | --- | --- | --- | --- | --- | --- | --- | --- | --- | --- | --- | --- | --- | --- | --- | --- | --- |
| CC[C@H]1C[C@@]23OC(=O)C(=C2O)C(=O)[C@]2(CC)[C@@H](C=C[C@@H]4[C@@H](O[C@H]5C[C@@H](O)[C@H](NC(=O)c6[nH]c(Cl)c(Cl)c6Cl)[C@@H](C)O5)[C@@H](C)CC[C@@H]42)CCCC/C=C/[C@@]3(C)C=C1C(=O)O | 47 | 2 (≈ 2.28 µM) | 2 (≈ 2.28 µM) | 2 (≈ 2.28 µM) | 4 (≈ 4.55 µM) | 4 (≈ 4.55 µM) | 4 (≈ 4.55 µM) | 4 (≈ 4.55 µM) | 4 (≈ 4.55 µM) | > 128 | 8 (≈ 9.11 µM) | 2 (≈ 2.28 µM) | 2 (≈ 2.28 µM) | 16 (≈ 18.2 µM) | 8 (≈ 9.11 µM) | 2 | 8 (≈ 9.11 µM) | – |
| CN[C@H](CC(C)C)C(=O)N[C@H]1C(=O)N[C@@H](CC(N)=O)C(=O)N[C@H]2C(=O)N[C@H]3C(=O)N[C@H](C(=O)N[C@H](C(=O)O)c4cc(O)cc(O)c4-c4cc3ccc4O)[C@H](O)c3ccc(c(Cl)c3)Oc3cc2cc(c3O[C@@H]2O[C@H](CO)[C@@H](O)[C@H](O)[C@H]2O[C@H]2C[C@](C)(N)[C@H](O)[C@H](C)O2)Oc2ccc(cc2Cl)[C@H]1O [VANCOMYCIN] | – | – | – | – | – | 8 (≈ 5.52 µM) | > 128 | 2 (≈ 1.38 µM) | 1 (≈ 0.69 µM) | 4 (≈ 2.76 µM) | 1 (≈ 0.69 µM) | 1 (≈ 0.69 µM) | > 128 | – | > 128 | – | 0.5 (≈ 0.345 µM) | – |
| COc1cccc2c1C(=O)c1c(O)c3c(c(O)c1C2=O)C[C@@](O)(C(=O)CO)C[C@@H]3O[C@H]1C[C@H](N)[C@H](O)[C@H](C)O1 [DOXORUBICIN] | 4.6 | – | – | – | – | – | – | – | – | – | – | – | – | – | – | 0.06 | – | – |
| CC[C@H]1C[C@@]23OC(=O)C(=C2O)C(=O)[C@]2(CC)[C@@H](C=C[C@@H]4[C@@H](O[C@H]5C[C@@H](O)[C@H](NC(=O)c6[nH]ccc6Br)[C@@H](C)O5)[C@@H](C)CC[C@@H]42)CCCC/C=C/[C@@]3(C)C=C1C(=O)O | 143 | – | – | 2 (≈ 2.34 µM) | 4 (≈ 4.68 µM) | – | – | – | – | – | 4 (≈ 4.68 µM) | 16 (≈ 18.7 µM) | 16 (≈ 18.7 µM) | 64 (≈ 75 µM) | 64 (≈ 75 µM) | 43 | 8 (≈ 9.37 µM) | – |
| CC[C@H]1C[C@@]23OC(=O)C(=C2O)C(=O)[C@]2(CC)[C@@H](C=C[C@@H]4[C@@H](O[C@H]5C[C@@H](O)[C@H](NC(=O)c6[nH]c(Cl)cc6Cl)[C@@H](C)O5)[C@@H](C)CC[C@@H]42)CCCC/C=C/[C@@]3(C)C=C1C(=O)O | 50 | 0.5 (≈ 0.593 µM) | 0.5 (≈ 0.593 µM) | 0.25 (≈ 0.296 µM) | 1 (≈ 1.19 µM) | 1 (≈ 1.19 µM) | 0.5 (≈ 0.593 µM) | 1 (≈ 1.19 µM) | 1 (≈ 1.19 µM) | 64 (≈ 75.8 µM) | 2 (≈ 2.37 µM) | 0.5 (≈ 0.593 µM) | 0.5 (≈ 0.593 µM) | 8 (≈ 9.48 µM) | 4 (≈ 4.74 µM) | 9 | 4 (≈ 4.74 µM) | inactive |
| CC[C@H]1C[C@@]23OC(=O)C(=C2O)C(=O)[C@]2(CC)[C@@H](C=C[C@@H]4[C@@H](O[C@H]5C[C@@H](O)[C@H](NC(=O)c6[nH]cc(Br)c6Br)[C@@H](C)O5)[C@@H](C)CC[C@@H]42)CCCC/C=C/[C@@]3(C)C=C1C(=O)O | 109 | – | – | 8 (≈ 8.58 µM) | 16 (≈ 17.2 µM) | – | – | – | – | – | 1 (≈ 1.07 µM) | 32 (≈ 34.3 µM) | 16 (≈ 17.2 µM) | 32 (≈ 34.3 µM) | 32 (≈ 34.3 µM) | 3 | 8 (≈ 8.58 µM) | – |
